According to ChEMBL document CHEMBL4118156, “Design, synthesis and evaluation of vilazodone-tacrine hybrids as multitarget-directed ligands against depression with cognitive impairment” (Bioorg Med Chem, 2018):

Legend:
[1] = target: T1, Butyrylcholinesterase (Rattus norvegicus, UniProt Q9JKC1)
Description: (§1) Inhibition of rat serum BChE using butyrylthiocholine iodide as substrate after 20 mins by Ellman's method

[2] = in vitro; settings: PAMPA
Description: Effective permeability of the compound in PBS/ethanol buffer after 12 hrs by PAMPA

[3] = target: T2, Acetylcholinesterase (Rattus norvegicus, UniProt P37136); assay: Inhibition of rat cortex AChE using acetylthiocholine iodide as substrate after 20 mins by Ellman's method
T2 sequence (P37136 whole entry): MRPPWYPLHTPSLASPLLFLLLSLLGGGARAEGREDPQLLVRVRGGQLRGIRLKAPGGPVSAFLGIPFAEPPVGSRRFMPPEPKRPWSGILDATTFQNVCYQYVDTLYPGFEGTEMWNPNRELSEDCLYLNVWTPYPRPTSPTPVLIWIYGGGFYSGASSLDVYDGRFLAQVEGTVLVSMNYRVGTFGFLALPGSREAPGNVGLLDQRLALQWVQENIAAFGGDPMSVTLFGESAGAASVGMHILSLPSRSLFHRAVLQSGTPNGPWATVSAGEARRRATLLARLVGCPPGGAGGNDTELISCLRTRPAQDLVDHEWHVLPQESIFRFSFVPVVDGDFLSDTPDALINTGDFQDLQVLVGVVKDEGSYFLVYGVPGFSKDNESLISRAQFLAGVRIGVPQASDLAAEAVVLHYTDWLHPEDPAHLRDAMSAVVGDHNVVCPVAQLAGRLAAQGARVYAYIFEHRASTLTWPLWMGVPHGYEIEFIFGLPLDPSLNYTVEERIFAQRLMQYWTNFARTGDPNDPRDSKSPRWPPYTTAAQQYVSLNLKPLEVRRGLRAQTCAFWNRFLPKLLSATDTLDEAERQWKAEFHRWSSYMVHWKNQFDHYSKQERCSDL

[4] = target: T3, 5-hydroxytryptamine receptor 1A (Homo sapiens, UniProt P08908)
T3 sequence (P08908 whole entry): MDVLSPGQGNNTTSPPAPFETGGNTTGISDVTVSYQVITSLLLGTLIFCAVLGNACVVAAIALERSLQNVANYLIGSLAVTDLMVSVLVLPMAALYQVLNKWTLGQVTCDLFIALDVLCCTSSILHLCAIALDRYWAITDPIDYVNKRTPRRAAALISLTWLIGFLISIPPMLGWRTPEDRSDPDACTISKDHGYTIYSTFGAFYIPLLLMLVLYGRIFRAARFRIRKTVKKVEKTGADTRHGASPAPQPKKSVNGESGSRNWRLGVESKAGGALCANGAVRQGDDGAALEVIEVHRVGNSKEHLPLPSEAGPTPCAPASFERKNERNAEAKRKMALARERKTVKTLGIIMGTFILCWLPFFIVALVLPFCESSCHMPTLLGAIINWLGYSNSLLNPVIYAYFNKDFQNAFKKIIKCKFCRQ
Description: Agonist activity at human 5-HT1A receptor expressed in HEK293 cells after 60 mins by Eu-cAMP solution based ultra LANCE assay

[5] = target: Sodium-dependent serotonin transporter (Homo sapiens, UniProt P31645); assay type: cell-based, HEK293
Description: Inhibition of SERT (unknown origin) expressed in HEK293 cells assessed as reduction in 5-HT uptake incubated for 30 mins

[6] = in vitro; settings: not told
Description: Effective permeability of the compound in PBS/ethanol buffer

[7] = target: T1, Butyrylcholinesterase; remark: listed apart in the source
Description: as §1

T1 sequence (Q9JKC1 whole entry): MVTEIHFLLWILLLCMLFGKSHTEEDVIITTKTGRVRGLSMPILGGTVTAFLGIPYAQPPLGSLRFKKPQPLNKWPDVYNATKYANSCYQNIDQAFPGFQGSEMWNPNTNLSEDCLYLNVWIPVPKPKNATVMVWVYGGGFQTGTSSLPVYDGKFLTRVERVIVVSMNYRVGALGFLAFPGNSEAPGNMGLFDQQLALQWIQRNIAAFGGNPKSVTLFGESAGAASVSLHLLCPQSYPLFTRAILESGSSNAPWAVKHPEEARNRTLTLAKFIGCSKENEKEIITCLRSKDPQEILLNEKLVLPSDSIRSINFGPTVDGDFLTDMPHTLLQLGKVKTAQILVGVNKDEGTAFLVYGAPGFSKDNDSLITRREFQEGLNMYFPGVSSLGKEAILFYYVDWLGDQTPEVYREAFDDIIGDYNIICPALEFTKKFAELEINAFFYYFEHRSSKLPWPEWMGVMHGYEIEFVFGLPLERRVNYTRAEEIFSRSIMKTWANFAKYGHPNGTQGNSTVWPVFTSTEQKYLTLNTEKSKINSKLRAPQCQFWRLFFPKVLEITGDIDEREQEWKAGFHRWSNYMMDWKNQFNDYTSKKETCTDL
Sequence of Sodium-dependent serotonin transporter (P31645 whole entry): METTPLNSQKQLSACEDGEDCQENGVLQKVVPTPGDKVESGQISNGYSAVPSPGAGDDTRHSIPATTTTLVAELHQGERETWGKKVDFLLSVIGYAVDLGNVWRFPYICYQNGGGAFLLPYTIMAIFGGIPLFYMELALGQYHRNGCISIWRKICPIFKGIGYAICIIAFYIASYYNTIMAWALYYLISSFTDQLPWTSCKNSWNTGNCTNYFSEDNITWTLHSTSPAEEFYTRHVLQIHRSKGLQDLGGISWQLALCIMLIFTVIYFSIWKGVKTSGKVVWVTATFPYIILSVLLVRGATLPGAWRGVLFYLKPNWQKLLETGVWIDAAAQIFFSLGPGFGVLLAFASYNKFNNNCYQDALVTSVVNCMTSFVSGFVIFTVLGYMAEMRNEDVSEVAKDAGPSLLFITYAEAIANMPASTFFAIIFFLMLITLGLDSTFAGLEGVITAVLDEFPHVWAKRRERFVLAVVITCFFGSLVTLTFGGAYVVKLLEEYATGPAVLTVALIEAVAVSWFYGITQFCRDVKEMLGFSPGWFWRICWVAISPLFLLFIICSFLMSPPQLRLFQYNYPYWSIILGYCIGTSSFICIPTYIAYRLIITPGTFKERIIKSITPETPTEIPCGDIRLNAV

Compound: N#Cc1ccc2[nH]cc(CCCN3CCN(c4cccc5nc6c(c(N)c45)CCCC6)CC3)c2c1
- IC50 [1]: 420 nM
- Papp at 12 h [2]: 5.46 ×10⁻⁶ cm/s
- IC50 ([3]; read-out: IC50): 1820 nM
- EC50 [4]: 52 nM

Compound: N#Cc1ccc2[nH]cc(CCCCN3CCN(c4cccc5c(N)c6c(nc45)CCCC6)CC3)c2c1
- IC50 [1]: 310 nM
- Papp at 12 h [2]: 4.43 ×10⁻⁶ cm/s
- IC50 ([3]; read-out: IC50): 2330 nM
- EC50 [4]: 1.55 nM

Compound: N#Cc1ccc2[nH]cc(C(=O)CCCN3CCN(c4cccc5c(N)c6c(nc45)CCCC6)CC3)c2c1
- IC50 [1]: 1850 nM
- Papp at 12 h [2]: 1.61 ×10⁻⁶ cm/s
- IC50 ([3]; read-out: IC50): 3310 nM
- EC50 [4]: 35 nM

Compound: N#Cc1ccc2[nH]cc(CCCCN3CCN(c4cccc5nc6c(c(N)c45)CCCC6)CC3)c2c1
- IC50 [1]: 340 nM
- Papp at 12 h [2]: 5.11 ×10⁻⁶ cm/s
- IC50 ([3]; read-out: IC50): 1720 nM
- EC50 [4]: 0.36 nM
- IC50 [5]: 20.4 nM

Compound: Nc1c2c(nc3cccc(N4CCN(CCCCc5c[nH]c6ccccc56)CC4)c13)CCCC2
- IC50 [1]: 390 nM
- Papp at 12 h [2]: 3.52 ×10⁻⁶ cm/s
- IC50 ([3]; read-out: IC50): 1440 nM
- EC50 [4]: 1.2 nM

Compound: N#Cc1ccc2[nH]cc(CCN3CCN(c4cccc5nc6c(c(N)c45)CCCC6)CC3)c2c1
- IC50 [1]: 1130 nM
- Papp at 12 h [2]: 4.48 ×10⁻⁶ cm/s
- IC50 ([3]; read-out: IC50): 2100 nM
- EC50 [4]: > 10000 nM

Compound: COc1ccc2[nH]cc(CCCCN3CCN(c4cccc5nc6c(c(N)c45)CCCC6)CC3)c2c1
- IC50 [1]: 400 nM
- Papp at 12 h [2]: 4.53 ×10⁻⁶ cm/s
- IC50 ([3]; read-out: IC50): 1620 nM
- EC50 [4]: < 0.14 nM
- IC50 [5]: 229 nM

Compound: CC1COc2c(N3CCN(C)CC3)c(F)cc3c2N1CC(C(=O)O)C3=O (stereo not drawn)
- Papp [6]: 0.8 ×10⁻⁶ cm/s
- Papp at 12 h [2]: 0.4 ×10⁻⁶ cm/s

Compound: N#Cc1ccc2[nH]cc(C(=O)CCCN3CCN(c4ccc5nc6c(c(N)c5c4)CCCC6)CC3)c2c1
- IC50 [1]: 250 nM
- Papp at 12 h [2]: 1.04 ×10⁻⁶ cm/s
- IC50 ([3]; read-out: IC50): 2910 nM
- EC50 [4]: 1560 nM

Compound: Nc1c2c(nc3cccc(N4CCN(CCCCc5c[nH]c6ccc(Cl)cc56)CC4)c13)CCCC2
- IC50 [7]: Nd(Insoluble)
- Papp at 12 h [2]: 2.74 ×10⁻⁶ cm/s
- IC50 [3]: Nd(Insoluble)
- EC50 [4]: 0.75 nM

Compound: N#Cc1ccc2[nH]cc(C(=O)CCCN3CCN(c4ccc5c(N)c6c(nc5c4)CCCC6)CC3)c2c1
- IC50 [1]: 370 nM
- Papp at 12 h [2]: 1.68 ×10⁻⁶ cm/s
- IC50 ([3]; read-out: IC50): 1980 nM
- EC50 [4]: 567 nM

Compound: Nc1c2c(nc3cccc(N4CCN(CCCCc5c[nH]c6ccc(Br)cc56)CC4)c13)CCCC2
- IC50 [7]: Nd(Insoluble)
- Papp at 12 h [2]: 3.05 ×10⁻⁶ cm/s
- IC50 [3]: Nd(Insoluble)
- EC50 [4]: 0.35 nM

Compound: N#Cc1ccc2[nH]cc(CCCCN3CCN(c4cccc5nc6c(c(N)c45)CCC6)CC3)c2c1
- IC50 [1]: 100 nM
- Papp at 12 h [2]: 4.38 ×10⁻⁶ cm/s
- IC50 ([3]; read-out: IC50): 2360 nM
- EC50 [4]: 0.58 nM
- IC50 [5]: 22.1 nM

Compound: N#Cc1ccc2[nH]cc(C(=O)CCCN3CCN(c4cccc5nc6c(c(N)c45)CCCC6)CC3)c2c1
- IC50 [1]: 390 nM
- Papp at 12 h [2]: 1.33 ×10⁻⁶ cm/s
- IC50 ([3]; read-out: IC50): 1360 nM
- EC50 [4]: 62.4 nM

Compound: COC(=O)c1ccc2[nH]cc(CCCCN3CCN(c4cccc5nc6c(c(N)c45)CCCC6)CC3)c2c1
- IC50 [1]: 410 nM
- Papp at 12 h [2]: 6.22 ×10⁻⁶ cm/s
- IC50 ([3]; read-out: IC50): 2220 nM
- EC50 [4]: < 0.14 nM
- IC50 [5]: 314 nM

Compound: N#Cc1ccc2[nH]cc(CCCCN3CCN(c4ccc5c(N)c6c(nc5c4)CCCC6)CC3)c2c1
- IC50 [1]: 250 nM
- Papp at 12 h [2]: 2.99 ×10⁻⁶ cm/s
- IC50 ([3]; read-out: IC50): 5100 nM
- EC50 [4]: 28.8 nM

Compound: Nc1c2c(nc3cccc(N4CCN(CCCCc5c[nH]c6ccc(F)cc56)CC4)c13)CCCC2
- IC50 [7]: Nd(Insoluble)
- Papp at 12 h [2]: 3.76 ×10⁻⁶ cm/s
- IC50 [3]: Nd(Insoluble)
- EC50 [4]: 0.72 nM

Compound: N#Cc1ccc2[nH]cc(CCCCN3CCN(c4ccc5nc6c(c(N)c5c4)CCCC6)CC3)c2c1
- IC50 [1]: 640 nM
- Papp at 12 h [2]: 3.55 ×10⁻⁶ cm/s
- IC50 ([3]; read-out: IC50): 10200 nM
- EC50 [4]: 14.9 nM

Compound: N#Cc1ccc2[nH]cc(CCCCN3CCN(c4cccc5nc6c(c(N)c45)CCCCC6)CC3)c2c1
- IC50 [1]: 230 nM
- Papp at 12 h [2]: 3.97 ×10⁻⁶ cm/s
- IC50 ([3]; read-out: IC50): 18300 nM
- EC50 [4]: 146 nM

Compound: CC(=O)Nc1c2c(nc3cccc(N4CCN(CCCCc5c[nH]c6ccc(C#N)cc56)CC4)c13)CCCC2
- IC50 [1]: 2920 nM
- Papp at 12 h [2]: 1.92 ×10⁻⁶ cm/s
- IC50 ([3]; read-out: IC50): 5610 nM
- EC50 [4]: 93.4 nM

Compound: Cc1ccc2[nH]cc(CCCCN3CCN(c4cccc5nc6c(c(N)c45)CCCC6)CC3)c2c1
- IC50 [1]: 360 nM
- Papp at 12 h [2]: 3.64 ×10⁻⁶ cm/s
- IC50 ([3]; read-out: IC50): 1120 nM
- EC50 [4]: 0.6 nM

Compound: COc1ccc(CCN2CCC(Nc3nc4ccccc4n3Cc3ccc(F)cc3)CC2)cc1 [ASTEMIZOLE]
- Papp [6]: 11 ×10⁻⁶ cm/s

Compound: N#Cc1ccc2[nH]cc(CCCCN3CCN(c4ccc5oc(C(N)=O)cc5c4)CC3)c2c1 [VILAZODONE]
- IC50 ([3]; read-out: IC50): 21300 nM
